Measurements from patent US12352767B2, “Method of treating cognitive decline associated with neurological diseases based on a decrease in FLT4 expression or activity” (University of Virginia Patent Foundation, priority 2018, dated 2025).
“Also recorded” adds a separate entry of the source.

Key:
brain parenchyma = test: Brain perfusion/influx by CSF tracer OVA-A647 (brain sections); type: in vivo, mice; conditions: 7 days after Visudyne/photoconversion, vs control groups
Procedure: Mice were anaesthetized by intraperitoneal (i.p.) injection of a mixed solution of ketamine (100 mg/Kg) and xylazine (10 mg/Kg) in saline. The skin of the neck was shaved and cleaned with iodine and 70% ethanol, ophthalmic solution placed on the eyes to prevent drying and the mouse's head was secured in a stereotaxic frame. After making a skin incision, the muscle layers were retracted and the cisterna magna exposed. Using a Hamilton syringe (coupled to a 33-gauge needle), the volume of the desired tracer solution was injected into the CSF-filled cisterna magna compartment. For brain CSF influx and lymphatic drainage experiments, 2 or 5 μL of Alexa Fluor® 594 or 647 conjugated OVA (Thermo Fisher Scientific), at 0.5 mg/mL in artificial CSF (#597316, Harvard Apparatus U.K.), were injected at a rate of 2.5 μL/min. After injecting, the syringe was left in place for additional 2 min to prevent back-flow of CSF.

meningeal immune cells = test: Flow cytometry of meningeal immune cell populations; type: in vivo; conditions: 5xFAD mice
Procedure: Individual meninges were immediately dissected from the mouse's skull cap and digested 15 min at 37° C. with 1.4 U/ml of Collagenase VIII (Sigma Aldrich) and 35 U/ml of DNAse I (Sigma Aldrich) in complete media consisting of DMEM (Gibco) with 2% FBS (Atlas Biologicals), 1% L-Glutamine (Gibco), 1% penicillin/streptomycin (Gibco), 1% Sodium pyruvate (Gibco), 1% non-essential amino-acid (Gibco) and 1.5% Hepes (Gibco). […] Cell viability was determined by using the Zombie Aqua™ Fixable Viability Kit following the manufacturer's instructions (BioLegend). […] Fluorescence data was collected with a Gallios™ Flow Cytometer (Beckman Coulter, Inc.) then analyzed using FlowJo software (Tree Star, Inc.). […] An aliquot of unstained cells of each sample was counted using Cellometer Auto2000 (Nexcelor) to provide accurate counts for each population. […]

[1] = tested on: meningeal lymphatic vessels; test: Meningeal whole-mount immunostaining (LYVE-1/CD31): lymphatic vessel area and diameter, blood vessel coverage
Procedure: Selective ablation of the meningeal lymphatic vessels was achieved by i.c.m. injection and transcranial photoconversion of Visudyne® (verteporfin for injection, Valeant Ophtalmics). Visudyne was reconstituted following manufacturer instructions and 5 μL was injected i.c.m. following the previously described procedure. […] Each spot was irradiated with a light dose of 50 J/cm^2 at an intensity of 600 mW/cm^2 for a total of 83 s. Controls were injected with the same volume of Visudyne (without the photoconversion step) or sterile saline plus photoconversion (vehicle/photoconversion). The scalp skin was then sutured, the mice were subcutaneously injected with ketoprofen (2 mg/Kg) and allowed to recover on a heating pad until fully awake.
A hydrogel of 1.4% hyaluronic acid and 3% methylcellulose alone (vehicle) or with 200 ng/mL of encapsulated human VEGF-C (PeproTech) or VEGF-C156S (R&D Systems) was prepared as described elsewhere^49. Briefly, lyophilized, sterile methylcellulose (4000 cP, Sigma-Aldrich) and sterile hyaluronic acid (1500-1800 kDa, Sigma-Aldrich) were sequentially dissolved in sterile 0.1 M phosphate buffered saline (PBS) at 4° C. overnight. Lyophilized VEGF-C or VEGF-C156S were resuspended as particulate at 2000 ng/mL in 0.5% sterile methylcellulose in PBS. The particulate solution, or vehicle 0.5% methylcellulose, was mixed into the hydrogel pre-solution at 1:10, and loaded into a syringe for gelation at 37° C. […] The hydrogels were prepared on the day of the experiment and kept warm inside the individual syringes until applied onto the mouse's skull. […] An incision was made in the scalp skin and the skull was thinned at the junction of all sinuses and above the transverse sinus. The shear-thinning properties of the polymers allowed the extrusion of 100 μL of each hydrogel solution from the syringe into the thinned skull surface. The scalp skin was then sutured on top of the solidified hydrogel, the mice were subcutaneously injected with ketoprofen (2 mg/Kg) and allowed to recover on a heating pad until fully awake.
Mice were given a lethal dose of anesthetics by intraperitoneal (i.p.) injection of Euthasol (10% v/v in saline). When needed, CSF was collected from the cisterna magna using a 0.5 mm diameter borosilicate glass pipette with internal filament and immediately stored at −80° C. Mice were then transcardially perfused with ice cold PBS with heparin (10 U/mL). Deep cervical lymph nodes were dissected and drop fixed in 4% paraformaldehyde (PFA) for 12 hours at 4° C. After stripping the skin and muscle from the bone the head was collected and drop fixed in 4% PFA. […] The brains were kept in 4% PFA for additional 24 hours (48 hours in total). […]

aquaporin 4 (AQP4) = test: AQP4 / CD31 immunostaining of brain sections; type: in vivo, mice
Procedure: Mouse fresh frozen brain sections were fixed with 4% PFA for 30 min, rinsed in dH2O and submitted to a heat-induced antigen retrieval step with 10 mM citrate buffer for 20 min. […] The steps described next were generally applied for mouse fresh frozen or fixed free-floating brain sections, lymph node sections on slide, meningeal whole-mounts and human fixed tissue. For immunofluorescence staining, tissue was rinsed in PBS and washed with PBS 0.5% Triton-X-100 for 10 min, followed by incubation in PBS 0.5% Triton-X-100 containing 0.5% of normal serum (either goat or chicken) and 0.5% bovine serum albumin (BSA) for 1 hour at RT. This blocking step was followed by incubation with appropriate dilutions of primary antibodies: anti-LYVE-1 eFluor 660 or anti-LYVE-1 Alexa Fluor® 488 (eBioscience, clone ALY7, 1:200), anti-CD31 (Millipore Sigma, MAB1398Z, clone 2H8, 1:200), anti-IBA1 (Abcam, ab5076, 1:300), anti-GFAP (Millipore Sigma, ab5541, 1:300), anti-AQP4 (Millipore Sigma, A5971, 1:200), anti-Ki67 (Abcam, ab15580, 1:100), anti-hAβ1-16 (BioLegend, clone 6E10, 1:200), anti-Aβ1-37/42 (Cell Signaling, clone D54D2, 1:300) and anti-GFP (Abcam, ab6556, 1:300) in PBS 0.5% Triton-X-100 containing 0.5% of normal serum and 0.5% BSA overnight at 4° C. Meningeal whole-mounts or tissue sections were then washed 3 times for 5 min at RT in PBS 0.5% Triton-X-100 followed by incubation with the appropriate chicken, goat or donkey Alexa Fluor® 488, 546, 594, or 647 anti-rat, -goat, -rabbit, -mouse or -Armenian hamster IgG antibodies (Thermo Fisher Scientific, 1:500) for 1 or 2 hours at RT in PBS 0.5% Triton-X-100. After an incubation for 10 min with 1:2000 DAPI in PBS, the tissue was washed 3 times for 5 min with PBS at RT and mounted with Aqua-Mount (Lerner) and glass coverslips. Preparations were stored at 4° C. for no more than 1 week until images were acquired either using a widefield microscope (Leica) or a confocal microscope (FV1200 Laser Scanning Confocal Microscope, Olympus). Quantitative analysis using the acquired images was performed on FIJI software. For the assessment of brain fluorescent tracer influx or efflux or AQP4 coverage, 10 representative brain sections were imaged using the widefield microscope and the mean area fraction was calculated using Microsoft Excel. […] Area of coverage by CD31^+ blood vessels and AQP4^+ astrocyte endfeet in the brain cortex was achieved by calculating the mean value of 10 representative fields (5 images in each cerebral hemisphere) per sample acquired using the confocal microscope.

[2] = Visudyne-treated vs vehicle-treated mice

verteporfin [Visudyne]
brain perfusion by CSF tracer (OVA-A647 area fraction in brain sections) (brain parenchyma): significantly lower; also recorded: significant decrease | number of macrophages in the meninges (meningeal immune cells; 1.5 months Visudyne/photoconversion vs both control groups): significant increase | neutrophils in the meninges (meningeal immune cells; Visudyne group (no photoconversion) compared to Visudyne/photoconversion group): significant increase | ablation of meningeal lymphatics (LYVE-1+ lymphatic vessels) ([1]; Visudyne 5 μL i.c.m. + transcranial photoconversion, adult mice): loss of meningeal vessel staining; also recorded: effective ablation of meningeal lymphatics | duration of meningeal lymphatic ablation ([1]; Visudyne i.c.m. + transcranial photoconversion): at least 7 days | area of AQP4+ astrocytic endfeet in brain cortex (aquaporin 4 (AQP4); Visudyne vs vehicle): No changes were observed | area of CD31+ blood vessels in brain cortex (aquaporin 4 (AQP4); Visudyne vs vehicle): No changes were observed | ratio between area of AQP4+ and of CD31+ (aquaporin 4 (AQP4); Visudyne vs vehicle): No changes were observed | overall brain coverage by AQP4 (area fraction) (aquaporin 4 (AQP4); [2]): could not detect changes; also recorded: no differences between groups | perivascular localization of AQP4+ astrocytic endfeet (aquaporin 4 (AQP4); [2]): could not detect changes
